According to patent US5171741A, “Bacteriochlorophyll-a derivatives useful in photodynamic therapy” (Health Research, Inc., priority 1989, dated 1992):
Where two headings read alike, the source gives them in different places.

Experiments:
[1] = as compared to bacteriochlorophyll-a; Beems et al.; cited from earlier work
[2] = cited from earlier work
[3] = Uptake, clearance and metabolism of bchla in tumor and liver (extraction, HPLC); type: in vivo, DBA/2 Ha mice; conditions: for concentration at 2 h: 2 h after injection; for concentration at 24 h: 24 h after injection
Method: Uptake and clearance of bchla in tumor and liver were measured by extraction of the tumor or liver tissue with 1:1MeOH:CH2 Cl2, followed by HPLC analysis.
bchla Uptake in DBA/2 Ha Mice in SMT-F Tumor

skin of the foot = assay: Cutaneous photosensitivity of the foot of treated mice versus tumor response (therapeutic ratio); type: in vivo
Method: One of the undesirable side effects of photodynamic therapy using certain compounds is cutaneous photosensitivity unrelated to the target biological substrate. Accordingly, the effect of the treatment on the photosensitivity of the foot of the treated mice was measured. The response of the foot was measured as erythema and/or edema (or loss of skin or further damage).

[4] = Chemical and in vivo stability of bchla
SMT-F tumors = assay: Photodynamic treatment of SMT-F tumors in mice with bchla, tumor response; type: in vivo, DBA2/HaD mice
Method: DBA2/HaD mice were transplanted with SMT-F tumors. When the subcutaneous tumors reached 4.5-5.5 mm in diameter, the mice, in groups of five, were injected intravenously with the bchla solution of Example 1 in doses of 5-30 mg/kg. At a time 1 hour-5 days later, the tumor, previously shaved and depiliated, plus a margin of 2-3 mm was exposed to radiation of a wavelength in the range 630-800 nm using a Spectraphysics argon dye laser with Exciton LDS751 dye, tunable over the 700-800 nm range or a diode laser--e. g., Spectra Diode emitting in the 750-850 nm range or a Xenon arc lamp filtered with an interference filter to pass 90% of the 700 nm light ±60 nm at dose rates of 75-150 mW/cm^2. When the Xenon system was used, mild hyperthermia resulted (42° C. at 160 mW/cm^2). It is not known whether this temperature rise acts synergistically with bchla as has been shown with HpD and its active fraction.
Tumor response is shown in the table of FIG. 1 for the seventh day after light treatment which indicates regression, and at a time point at least 30 days after light treatment, which would indicate cure, if there had been no regrowth.
As shown in FIG. 1 good response to bchla was obtained, for example, after 2 hours at 5 mg/kg in the 670-790 nm range and after 24 hours after injection with 10 mg/kg and irradiated at 680-780 nm. […]

CCC1C2=NC(=Cc3c(C(C)=O)c(C)c4[n]3[Mg][n]3c(c(C)c(C(=O)O)c3=C(CC(=O)O)C3=NC(=C4)C(C)C3CCC(=O)O)=C2)C1C (stereo not shown) [bacteriochloro-phyllin-a]
Water solubility [1]: enhanced water solubility

CCC1C2=NC(=Cc3c(C(C)=O)c(C)c4[n]3[Mg][n]3c(c(C)c5c3=C(C3=NC(=C4)C(C)C3CCC(=O)OCC=C(C)CCCC(C)CCCC(C)CCCC(C)C)C(C(=O)OC)C5=O)=C2)C1C (stereo not shown) [bchla, Bacteriochlorophyll-a]
Stability towards loss of magnesium ion ([2]; dilute acid): readily removed | Stability towards oxidation ([2]; especially in the presence of light): readily oxidized | Levels in tumor and liver maintained ([3]; 24 or 48 hours): maintained for as long as 24 or 48 hours | Levels in tumor and liver ([3]; after 2 hours): high levels | Composition of material in tumor ([3]; at 24 hours): demetallized but still contains phytyl | Composition of material in tumor ([3]; at 48 hours): mainly material without phytyl and without Mg | Time of partial conversion to bacteriopheophytin ([3]; liver): 2 h | concentration at 2 h ([3]; mouse, liver, 10 mg/kg, read-out: Tissue Level, Liver): 44000 ng/g | concentration at 24 h ([3]; mouse, liver, 10 mg/kg, uncertain (*), conversion to other components, read-out: Tissue Level, Liver): 49400 ng/g | concentration at 2 h ([3]; mouse, tumor, 10 mg/kg, read-out: Tissue Level, Tumor): 6140 ng/g | concentration at 48 h ([3]; mouse, tumor, 10 mg/kg, 48 h after injection, uncertain (*), conversion to other components, read-out: Tissue Level, Tumor): 10700 ng/g | concentration at 2 h ([3]; mouse, tumor, 20 mg/kg, read-out: Tissue Level, Tumor): 16000 ng/g | concentration at 24 h ([3]; mouse, tumor, 20 mg/kg, uncertain (*), conversion to other components, read-out: Tissue Level, Tumor): 10000 to 19700 ng/g | Time of partial conversion to bacteriopheophytin ([3]; tumor): ≥ 24 h | Composition of material in tumor ([3]; two hours after injection): essentially only bchla with a small amount of material wherein the phytyl group has hydrolyzed | Expected persistence of sensitivity to light (skin of the foot; expected from the mouse foot response): only a few days | Sensitivity of the tumor and the skin of the foot as a function of time (skin of the foot; mice, FIG. 3): declined concomitantly | Stability in vivo [4]: sufficiently stable in vivo | Tumor response (SMT-F tumors; 5 mg/kg i.v., 2 hours after injection, 670-790 nm range): good response | Tumor response (SMT-F tumors; 10 mg/kg i.v., 24 hours after injection, irradiated at 680-780 nm): good response

CCC1c2cc3[nH]c(c(CC(=O)O)c4nc(cc5[nH]c(cc(n2)C1C)c(C(C)=O)c5C)C(C)C4CCC(=O)O)c(C(=O)O)c3C (stereo not shown) [bacteriochlorin-a]
Water solubility [1]: enhanced water solubility
